The values below come from patent US20250017853A1, “NANOSUSPENSION CONTAINING PROGERININ, AND PREPARATION METHOD THEREFOR” (PRG S&Tech Inc., priority 2021, published 2025).

The nature of data set [1]: Excipient compatibility, binary mixtures 1:10, 40° C./75% RH over 2 weeks. Type of data set: physicochemical. As to the method:
To assess compatibility with excipients, progerinin was mixed with HPMC E3, TPGS, and potassium sorbate in a ratio of 1:10, and the effectiveness of the drug (API) components was measured under 40° C./75% RH condition over 2 weeks and shown in Table 9 and Table 10.

Data set [2] relates to progeria-induced animal model. The note with it: background art; cited from earlier work.
Data set [3] in a line: BCS classification, permeability and solubility of progerinin. Type of data set: physicochemical. The text has this: In particular, the above-mentioned progerinin is poorly soluble to the extent that its solubility in water is close to zero, and the solubility is very low even in existing ingestible solvents, such that it is necessary to develop a formulation that enables long-term intake and body absorption through the introduction of new technology.

The conditions of data set [4]: BCS criteria; cited from earlier work.
The nature of data set [5]: Stability of spray-dried solid dispersions under high temperature and high humidity for 2 weeks. In kind it is physicochemical. The following applies: for Appearance / HPLC results Purity / XRPD: open.

Consider `CC1(C)Oc2cc3oc(=O)ccc3cc2C[C@@H]1OC/C=C/c1ccccc1` [progerinin, (7S)-(+)-8,8-dimethyl-7-(3-phenylallyloxy)-7,8-dihydro-6H-pyrano [3,2-g]chromen-2-one], for which the “API(% Area)” value is given as 99.94 % Area in data set [1] (40° C./75% RH, 1 week); 99.95 % Area in data set [1] (40° C./75% RH, 2 weeks); 99.94 % Area in data set [1] (Initial). In addition, the “RRT = 1.02” value was determined as 0.06 in data set [1] (40° C./75% RH, 1 week); 0.05 in data set [1] (40° C./75% RH, 2 weeks); 0.06 in data set [1] (Initial). The “compatibility with excipients HPMC E3, TPGS and potassium sorbate” value in data set [1] (text summary of Tables 9 and 10) is listed as “no effect on the drug”. For the same compound, the “survival period of progeria-induced animal model” value in data set [2] is on record as “prolonging a survival period”. In addition, the solubility in water result in data set [3] is recorded as “close to zero”. Also, the “solubility in aqueous media” value in data set [4] is on record as “low solubility in aqueous media”. The Appearance entry in data set [5] (25° C./60% RH) and in data set [5] (40° C./75% RH) was “White” throughout. Moreover, the “HPLC results Purity” value in data set [5] (25° C./60% RH, after 1 week) is given as 99.85%; in data set [5] (25° C./60% RH, after 2 weeks), 99.85%; in data set [5] (40° C./75% RH, after 1 week), 99.85%; in data set [5] (40° C./75% RH, after 2 weeks) it was 99.85%. In addition, the XRPD entry in data set [5] (25° C./60% RH, after 1 week) is recorded as “Unchanged”; in data set [5] (25° C./60% RH, after 2 weeks), “Unchanged”; in data set [5] (40° C./75% RH, after 1 week), “Unchanged”; in data set [5] (40° C./75% RH, after 2 weeks), “Unchanged”. Also, the Initial purity in data set [5] (Initial) worked out at 99.85%.
